These results are taken from patent publication US10301286B2, “Piperazine derivative” (Astellas Pharma Inc., priority 2015, dated 2019).

Counter-ions that a name gives are not always drawn.

The target of data set [1] is human MC1 receptor (Homo sapiens (Human), UniProt Q01726). Nature of the data set: Human MC receptor activation, cAMP production in cells expressing human MC1 receptor. The data set is classed as cell-based. Particulars: FreeStyle 293-F cells transiently expressing human MC1 receptor, α-MSH maximum = 100%. From the text: (1) Construction of Human MC Receptor-Expressing Vector
Sequence of human MC1 receptor (Q01726 whole entry): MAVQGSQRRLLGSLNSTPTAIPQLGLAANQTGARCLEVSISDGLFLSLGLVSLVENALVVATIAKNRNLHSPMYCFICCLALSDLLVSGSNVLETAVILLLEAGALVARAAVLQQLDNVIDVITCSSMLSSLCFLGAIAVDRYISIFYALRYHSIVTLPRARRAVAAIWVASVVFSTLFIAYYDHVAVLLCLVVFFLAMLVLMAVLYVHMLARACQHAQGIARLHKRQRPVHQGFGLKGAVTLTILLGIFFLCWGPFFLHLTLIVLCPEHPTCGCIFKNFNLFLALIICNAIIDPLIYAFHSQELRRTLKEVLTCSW
A human MC4 receptor gene (GenBank Accession No.: NM_005912.2), a human MC1 receptor gene (GenBank Accession No.: NM_002386.3), or a human MC3 receptor gene (GenBank Accession No.: NM_019888.3) was introduced into an expression vector pcDNA™ 3.1/V5-His TOPO (registered trademark) (Thermo Fisher Scientific Inc.).
(2) Construction of Cells Transiently Expressing Human MC Receptor
(§1) An expression vector for a human MC4, MC1, or MC3 receptor was introduced into FreeStyle™ 293-F cell (Thermo Fisher Scientific Inc., product number: R790-07). For the introduction, electroporation was employed. That is, 1×10^7 FreeStyle™ 293-F cell were suspended in 80 μL of an electroporation buffer (Thermo Fisher Scientific Inc., product number: B201-100), and 20 μg of the expression vector was added thereto. The resultant was put into a cuvette (OC-100 Processing Assembly, MaxCyte, Inc.) and electroporated with MaxCyte SIX (registered trademark) (MaxCyte, Inc.). The cells were cultured over one day, suspended in a Cell Banker (registered trademark) 1 (JUJI FIELD Inc.), product number: BLC-1), and stored frozen until their use.
(§2) (3) Measurement of Amount of cAMP Produced
Measurement was carried out by using a LANCE (registered trademark) Ultra cAMP Kit (PerkinElmer, Inc.) in accordance with the attached instructions. That is, after dissolution in DMSO, the test compound (a final concentration of 1 pM to 30 μM) diluted with an assay buffer (Hank's balanced salt solution, 5 mM 4-(2-hydroxyethyl)-1-piperazineethanesulfonic acid (HEPES), 0.5 mM 3-isobutyl-1-methylxanthine (IBMX), 0.1% bovine serum albumin, pH 7.4), or α-MSH (Bachem Inc., a final concentration of 1 pM to 30 μM) was added to OptiPlate-384 (PerkinElmer, Inc.). Furthermore, a suspension of cells transiently expressing the human MC4, MC1, or MC3 receptor prepared by using the assay buffer was added thereto at 1,000 cells/well, followed by being left to stand at room temperature for about 1 hour. Thereafter, an Eu-cAMP tracer solution and an ULight™-anti-cAMP solution were added thereto, followed by being left to stand at room temperature for about 1 hour. The amount of cAMP was calculated using EnVision (registered trademark) (PerkinElmer Inc.).
(§3) For the agonistic activity, an efficacy (EC50 (μM)) was calculated by a non-linear regression method with a Sigmoid-Emax model, by defining the maximum reaction with α-MSH as 100% and the reaction with the vehicle alone as 0%, respectively.

The target in data set [2] is rat MC4 receptor (Rattus norvegicus (Rat), UniProt P70596). The data set can be described thus: Rat MC4 receptor activation, cAMP production in cells expressing rat MC4 receptor. It counts as cell-based. Particulars: FreeStyle 293-F cells transiently expressing rat MC4 receptor, α-MSH maximum = 100%.
Sequence of rat MC4 receptor (P70596 whole entry): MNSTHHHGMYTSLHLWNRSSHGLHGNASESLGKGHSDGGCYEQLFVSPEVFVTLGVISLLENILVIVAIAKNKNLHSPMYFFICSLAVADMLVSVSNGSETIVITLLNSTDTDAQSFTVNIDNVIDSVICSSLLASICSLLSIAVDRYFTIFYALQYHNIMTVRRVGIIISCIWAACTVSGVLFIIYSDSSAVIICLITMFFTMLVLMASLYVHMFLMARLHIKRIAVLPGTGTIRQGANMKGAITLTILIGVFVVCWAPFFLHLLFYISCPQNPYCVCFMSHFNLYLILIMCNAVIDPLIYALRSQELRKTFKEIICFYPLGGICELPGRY
Source text: (1) Construction of Rat MC4 Receptor-Expressing Vector
A rat MC4 receptor gene (GenBank Accession No.: NM_013099.2) was introduced into an expression vector pcDNA™ 3.1/V5-His TOPO (registered trademark) (Thermo Fisher Scientific Inc.).
(2) Construction of Cells Transiently Expressing Rat MC4 Receptor
as §1, with “rat MC4” for “human MC4, MC1, or MC3”, “Inc.).” for “Inc., product number: R790-07).”, “Inc.),” for “Inc., product number: B201-100),”, “STX” for “SIX”, “Inc.),” for “Inc.), product number: BLC-1),”, “until” for “until their”
as §2
Measurement was carried out in accordance with the attached instructions, using a LANCE (registered trademark) Ultra cAMP Kit (PerkinElmer, Inc.). That is, after dissolution in DMSO, the test compound (a final concentration of 1 pM to 30 μM) diluted with an assay buffer (Hank's balanced salt solution, 5 mM HEPES, 0.5 mM IBMX, 0.1% bovine serum albumin, pH 7.4), or α-MSH (Bachem Inc., a final concentration of 1 pM to 30 μM) was added to OptiPlate-384 (PerkinElmer, Inc.). Furthermore, a suspension of cells transiently expressing the rat MC4 receptor, that had been prepared using the assay buffer, was added thereto at 1,000 cells/well, followed by being left to stand at room temperature for about 1 hour. Thereafter, an Eu-cAMP tracer solution and an ULight™-anti-cAMP solution were added thereto, followed by being left to stand at room temperature for about 1 hour. The amount of cAMP was calculated using EnVision (registered trademark) (PerkinElmer Inc.).
as §3
(In general: Changes in cAMP serve as a functional read-out for many G protein-coupled receptors.)

Data set [3] deals with Male SD rats. The data set can be described thus: Rat erection-inducing action. Particulars: 10 mg/kg intravenously, erections up to one hour after administration, vs vehicle, P<0.05. The data set is classed as in vivo. The procedure:
Male SD rats (Charles River Laboratories Japan, Inc.) were used. A test compound (10 mg/kg) or the vehicle (20% dimethyl acetamide, 10% Cremophor (registered trademark), 70% physiological saline) was administered intravenously through the tail vein. After administration, the rats were transferred to transparent observation cages made of plastic to measure the erection times of up to one hour after administration. The measurements were carried out for five groups (3 to 7 animals per group): vehicle groups, Example compound groups (Ex 87, 88, and 89), and THIQ group, which had been known as an MC4 receptor agonist (J. Med. Chem., 45, 4589-4593 (2002)), as a positive control. For a statistical significance test, Dunnett's multiple comparison test was used for the comparison with vehicle control group, and it was determined whether there was an erection-inducing effect with a statistically significant difference (P<0.05).

`Cc1ccc(C[C@@H](C(=O)O)N2CCN(C(=O)[C@@H]3CN(C(C)(C)C)C[C@H]3c3ccc(Cl)cc3F)[C@@H](C)C2)c(F)c1` [Example 4, (2S)-2-[(3S)-4-{[(3S,4R)-1-tert-butyl-4-(4-chloro-2-fluorophenyl)pyrrolidin-3-yl]carbonyl}-3-methylpiperazin-1-yl]-3-(2-fluoro-4-methylphenyl)propanoic acid dihydrochloride]: the figures for the EC50 in data set [1] and in data set [2] were 0.07 µM and 0.0013 µM, respectively.
The corresponding values for `C[C@H]1CN([C@@H](Cc2ccc3c(c2)CCC3)C(=O)O)CCN1C(=O)[C@@H]1CN(C(C)(C)C)C[C@H]1c1ccc(F)cc1F` [Example 5, (2S)-2-[(3S)-4-{[(3S,4R)-1-tert-butyl-4-(2,4-difluorophenyl)pyrrolidin-3-yl]carbonyl}-3-methylpiperazin-1-yl]-3-(2,3-dihydro-1H-inden-5-yl)propanoic acid dihydrochloride] are 1.3 µM and 0.026 µM.
The corresponding values for `CCC[C@H]1CN([C@@H](Cc2ccc3ccccc3c2)C(=O)O)CCN1C(=O)[C@@H]1CN(C(C)(C)C)C[C@H]1c1ccc(F)cc1F` [Example 9] are 0.39 µM and 0.0026 µM.
As for `Cc1ccc(C[C@@H](C(=O)O)N2CCN(C(=O)[C@@H]3CN(C(C)(C)C)C[C@H]3c3ccc(Cl)cc3F)[C@@H](C)C2)cc1` [Example 11], the EC50 (usually the midpoint of the concentration-response curve) in data set [1] amounted to 0.86 µM; in data set [2], 0.021 µM.
As to `Cc1cc(F)c(C[C@@H](C(=O)O)N2CCN(C(=O)[C@@H]3CN(C(C)(C)C)C[C@H]3c3ccc(Cl)cc3F)[C@@H](C)C2)c(F)c1` [Example 76], the concentration for a half-maximal effect (EC50) in data set [1] was 0.1 µM; in data set [2] it was 0.0017 µM.
For `Cc1ccc(C[C@@H](C(=O)O)N2CCN(C(=O)[C@@H]3CN(C4CCOCC4)C[C@H]3c3ccc(Cl)cc3F)[C@@H](C)C2)c(F)c1` [Example 87, (2S)-2-[(3S)-4-{[(3S,4R)-4-(4-chloro-2-fluorophenyl)-1-(tetrahydro-2H-pyran-4-yl)pyrrolidin-3-yl]carbonyl}-3-methylpiperazin-1-yl]-3-(2-fluoro-4-methylphenyl)propanoic acid dihydrochloride], the erection-inducing effect entry in data set [3] is given as “did not exhibit an erection-inducing effect”. Besides, the EC50 was 1.1 µM in data set [1] and 0.021 µM in data set [2].
The corresponding values for `Cc1cc(C)c(C[C@@H](C(=O)O)N2CCN(C(=O)[C@@H]3CN(C4CCOCC4)C[C@H]3c3ccc(Cl)cc3F)[C@@H](C)C2)c(F)c1` [Example 88] are “did not exhibit an erection-inducing effect”, 2.7 µM and 0.011 µM.
With `Cc1cc(C)c(C[C@@H](C(=O)O)N2CCN(C(=O)[C@@H]3CN(C(C)(C)C)C[C@H]3c3ccc(Cl)cc3F)[C@@H](C)C2)c(C)c1` [Example 89], the erection-inducing effect entry in data set [3] is listed as “did not exhibit an erection-inducing effect”. Besides, the EC50 came out at 1.3 µM in data set [1] and 0.0031 µM in data set [2].
